Source: ChEMBL document CHEMBL3351430, “Inhibition studies of new ureido-substituted sulfonamides incorporating a GABA moiety against human carbonic anhydrase isoforms I-XIV” (Bioorg Med Chem, 2014)
pKi: −log10 of the molar value.

Legend:
Carbonic anhydrase 3 = Carbonic anhydrase 3 (Homo sapiens, UniProt P07451)
Description: Inhibition of human recombinant carbonic anhydrase 3 pre-incubated for 15 mins by stopped-flow CO2 hydration assay

Carbonic anhydrase 6 = Carbonic anhydrase 6 (Homo sapiens, UniProt P23280); assay: Inhibition of human recombinant carbonic anhydrase 6 pre-incubated for 15 mins by stopped-flow CO2 hydration assay
Carbonic anhydrase 6, sequence (P23280 whole entry): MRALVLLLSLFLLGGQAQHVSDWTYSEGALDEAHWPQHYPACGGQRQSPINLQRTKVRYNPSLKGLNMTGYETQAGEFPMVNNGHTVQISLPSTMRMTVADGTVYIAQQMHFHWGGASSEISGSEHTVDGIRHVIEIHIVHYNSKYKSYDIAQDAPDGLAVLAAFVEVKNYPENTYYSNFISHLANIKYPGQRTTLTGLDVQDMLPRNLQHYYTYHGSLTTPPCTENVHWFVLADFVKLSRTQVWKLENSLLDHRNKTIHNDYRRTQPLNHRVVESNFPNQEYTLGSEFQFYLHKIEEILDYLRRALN

Carbonic anhydrase 13 = Carbonic anhydrase 13 (Homo sapiens, UniProt Q8N1Q1)
Carbonic anhydrase 13, sequence (Q8N1Q1 whole entry): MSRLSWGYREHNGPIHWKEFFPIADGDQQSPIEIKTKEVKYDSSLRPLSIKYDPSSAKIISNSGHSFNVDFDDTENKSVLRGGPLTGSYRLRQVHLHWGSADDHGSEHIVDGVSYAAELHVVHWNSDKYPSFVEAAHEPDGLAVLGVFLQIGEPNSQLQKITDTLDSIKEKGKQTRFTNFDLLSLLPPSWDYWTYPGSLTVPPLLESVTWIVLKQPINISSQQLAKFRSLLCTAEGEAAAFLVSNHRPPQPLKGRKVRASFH
Description: Inhibition of human recombinant carbonic anhydrase 13 pre-incubated for 15 mins by stopped-flow CO2 hydration assay

Carbonic anhydrase 9 = Carbonic anhydrase 9 (Homo sapiens, UniProt Q16790)
Description: Inhibition of human recombinant carbonic anhydrase 9 pre-incubated for 15 mins by stopped-flow CO2 hydration assay

Carbonic anhydrase 3, sequence (P07451 whole entry): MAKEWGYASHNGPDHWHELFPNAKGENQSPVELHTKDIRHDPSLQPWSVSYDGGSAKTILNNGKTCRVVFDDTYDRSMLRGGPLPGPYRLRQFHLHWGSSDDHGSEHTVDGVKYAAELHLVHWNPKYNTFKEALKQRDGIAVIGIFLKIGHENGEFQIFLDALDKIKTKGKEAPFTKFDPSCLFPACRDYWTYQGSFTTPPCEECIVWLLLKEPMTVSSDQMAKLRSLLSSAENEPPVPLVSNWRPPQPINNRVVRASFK

Structure (SMILES) | pKi (Carbonic anhydrase 3) | pKi (Carbonic anhydrase 6) | pKi (Carbonic anhydrase 13) | pKi (Carbonic anhydrase 9)
NS(=O)(=O)c1ccc(CCNC(=O)CCCNC(=O)NCc2ccccc2)cc1 | < 4.68 | < 6.92 | < 6.62 | 6.97
NS(=O)(=O)c1ccc(CNC(=O)CCCNC(=O)NCCc2ccccc2)cc1 | < 4.68 | < 6.92 | < 6.62 | 6.52
NS(=O)(=O)c1ccc(CCNC(=O)CCCNC(=O)Nc2ccc([N+](=O)[O-])cc2)cc1 | < 4.68 | < 6.92 | < 6.62 | 6.86

Next, values leading:

pKi (Carbonic anhydrase 3) | pKi (Carbonic anhydrase 6) | pKi (Carbonic anhydrase 13) | pKi (Carbonic anhydrase 9) | Structure (SMILES)
< 4.68 | < 6.92 | < 6.62 | 7.34 | NS(=O)(=O)c1ccc(CNC(=O)CCCNC(=O)Nc2ccccc2)cc1
< 4.68 | < 6.92 | < 6.62 | 7.38 | NS(=O)(=O)c1ccc(CCNC(=O)CCCNC(=O)Nc2ccccc2)cc1
< 4.68 | < 6.92 | < 6.62 | – | NS(=O)(=O)c1ccc(CNC(=O)CCCNC(=O)NCc2ccccc2)cc1
